Read-outs that look alike come from different tables or passages of the source.
How the values were obtained:
[1] = molecular target: T1, DNA-PK phosphorylation at Serine 2056 (Homo sapiens, UniProt P78527); assay: Cellular Assay for Inhibition of DNA-PK Phosphorylation at Serine 2056 in FaDu cells (sandwich ELISA, neocarzinostatin); format: cell-based; details: pSer2056 DNA-PK, neocarzinostatin 1 μg/mL, Table 1
T1 construct: FaDu cells were purchased from ATCC; host or cells: FaDu
Summary of the method: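 pSer2056 and total DNA-PK were measured by sandwich ELISA in BCA-normalised FaDu lysates. Cells had 1 h compound exposure (0.3% DMSO), then 2 h with 1 μg/mL final neocarzinostatin. IC50 was fitted (variable slope) to % inhibition scaled against NCS-stimulated and DMSO-only controls.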

DNA-PK = molecular target: T2, DNA-PK (Homo sapiens, UniProt P78527); assay: DNA-PK Assay for Biochemical Enzymatic Inhibition (ADP Glo Kinase assay); details: DNA-PK enzyme, Table 1
T2 construct: purchased Invitrogen PR9107A
Description: A biochemical assay was performed to identify IC50 values against DNA-PK activity in a two-step reaction with a kinase reaction followed by ADP Glo™ Kinase assay Kit (Promega V9102).
Three-fold serial dilutions of compounds in DMSO were prepared in kinase assay buffer (50 mM HEPES pH 7.5, 20 mM MgCl2, 100 mM KCl, 50 μM DTT, 10 μg/ml calf thymus DNA, 0.01% Tween 20). Kinase assay buffer was used to prepare compound treatments to 0.02% DMSO (dimethyl sulphoxide) content. DMSO controls were prepared to produce a maximum and minimum luminescence signal for normalization. Substrate (Anaspec, AS-60210-5) and ATP (Promega V9102) and ATP mix was prepared by dilution in kinase assay buffer for 434.4 μM and 64.4 μM final assay concentrations, respectively. Compounds and control were added to 25 ng DNA-PK enzyme (Invitrogen, PR9107A) diluted in kinase buffer in assay plate (Corning 267459) and incubated for 15 minutes at room temperature prior to addition of substrate and ATP mix.
Throughout the assay, each time a reagent was added to the microplate, it was centrifuged for 1 minute at 1300 rcf. All reagents were added, and incubations carried out at room temperature. The reaction was then incubated for 60 minutes. ADP-ATP standards at 0, 4, 10, 40, 80, and 100% ADP (prepared as specified in the ADP Glo™ Kinase assay kit) were also added to the microplate at a volume equal to the total kinase reaction. The ADP Glo™ Kinase Assay kit was then used to quantify DNA-PK activity: following the 60-minute incubation, a 1:1 volume of ADP Glo reagent was added to all wells, then following a further 45-minute incubation, a 1:1 volume of Kinase Detection Reagent was added to all wells. After this two-step assay, plates were incubated in a Synergy-Neo2 plate reader for 30 minutes with gentle shaking, followed by endpoint luminescent read Luminescence data was normalized by subtracting the background signal and expressing all background-adjusted values as a percentage of the average maximum signal. The data was then expressed as percent inhibition by subtracting from 100% (i.e. maximum luminescent signal will be 0% inhibition) and the resulting data plotted against ten concentration points on a logarithmic scale, using GraphPad Prism. Non-linear regression analysis was performed on each concentration response curve and the log [inhibitor] vs response—variable slope (four parameters) equation was selected to generate IC50 values.

[2] = test system: pDNA-PK induction in HCT116 tumour spheroids; assay: Multicellular tumour spheroid + radiation, pDNA-PK (ser2056) inhibition, immunohistochemical endpoint, HCT116; format: cell-based; details: Homo sapiens, 20 Gy, 20% O2
Description: Multicellular tumour spheroids determination of compound inhibition of pDNA-PK induction following radiation. Tumour spheroids were grown to approximately 0.5 mm in diameter and irradiated with 20 Gy in combination with inhibitor test compounds to determine their potency. Inhibitor concentration for 50% reduction in pDNA-PK induction (IC50) was determined via immunohistochemical staining in spheroid cryosections taken 2 hours following radiation.
(§1) Spheroid+radiation pDNA-PK. Radiation: 20 Gy. Drug: serial dilution 5 or 10 μM down to 3.5 nM (11 wells). Spheroids: 3-6 spheroids per well (300-500 μm diameter). 20% 02 and 5% CO2. 96 well plate format.
Protocol: pre-incubate 1 hours with drug, irradiate with 20 Gy, post-incubate 2 hours with drug, freeze and cryosection ×3 replicates.
Endpoint: fluorescent immunostin pDNA-PK ser2056 and image on microscope.
Analysis: determine EC50 concentration that decreases pDNA-PK induction by 50% after radiation.
Multicellular tumour spheroids determination of compound inhibition of pDNA-PK induction following radiation. Tumour spheroids were grown to approximately 0.5 mm in diameter and irradiated with 20 Gy in combination with inhibitor test compounds to determine their potency. Inhibitor concentration for 50% reduction in pDNA-PK induction (IC50) was determined via immunohistochemical staining in spheroid cryosections taken 2 hours following radiation. For cell survival endpoint 8 Gy radiation was used and 3 hours following radiation spheroids were dissociated, counted and plated for colony forming endpoint.
as §1, with “format. Endpoint: fluorescent immunostain pDNA-PK ser2056 and image on microscope. Analysis: determine EC50 concentrations that decreases pDNA-PK induction by 50% after irradiation.” for “format.”
Multicellular tumour spheroids were used to determine potency of test compounds in a 3D tissue environment using inhibition of pDNA-PK induction following radiation or cell survival as the endpoint. For the pDNA-PK endpoint HCT116 or FaDU tumour spheroids were grown to approximately 0.5 mm in diameter and irradiated with 20 Gy in combination with inhibitor test compounds to determine their potency. Experiments were carried out in 96 well plates containing 0.7 mls of MEM media containing 10% FBS and 10 mM glucose under 20% O2 & 5% CO2 at 37° C. Following dilution of compounds 1:1000 from DMSO stocks, compounds were serially diluted from 10 μM down to 3.5 nM and 5-10 spheroids added. 96 well plates were constantly stirred to avoid spheroids settling during the course of the experiment. The inhibitor concentration for 50% reduction in pDNA-PK induction (EC50) was determined via immunohistochemical staining in spheroid cryosections taken 2 hours following radiation using anti-pDNA-PK (ser 2056) and fixed immediately in formalin following sectioning. For cell survival endpoint 8 Gy radiation was used and, 3 hours following radiation, spheroids were dissociated, counted and plated for colony forming endpoint. Data presented in the table compound potency as EC50 [μM].

[3] = HCT-116, 2 hours following radiation, Example 9 Study 2, read-out: Spheroid Cell line: HCT116 Immunohistochemical endpoint pDNA-PK inhibition EC50
[4] = HCT-116, Spheroid, Cell Line: HCT115 (so in the source), 2 hours following radiation, Example 7, read-out: EC50, Immunohistochemical endpoint, pDNA-PK inhibition
[5] = HCT-116, 2 h, spheroids, Example 8, read-out: Cell line: HCT116 Immunohistochemical endpoint pDNA-PK inhibition EC50

SMILES | IC50 [1] | IC50 (DNA-PK) | EC50 [2, 3] | EC50 [2, 4] | EC50 [2, 5]
c1cnc2cc(N3CCOCC3)nc(O[C@H]3CC[C@@H](Nc4ncc(OCc5ncco5)cn4)CC3)c2c1 [Compound 78, N-((1s,4s)-4-((7-Morpholino-1,6-naphthyridin-5-yl)oxy)cyclohexyl)-5-(oxazol-2-ylmethoxy)pyrimidin-2-amine] | 0.1 to 1 µM | 0.0005 to 0.001 µM | 1 to 10 µM | 1 to 10 µM | –
Cn1ccnc1COc1cnc(N[C@H]2CC[C@@H](Oc3nc(N4CCOCC4)cc4ncccc34)CC2)nc1 [Compound 79, 5-((1-methyl-1H-imidazol-2-yl)methoxy)-N-((1s,4s)-4-((7-morpholino-1,6-naphthyridin-5-yl)oxy)cyclohexyl)pyrimidin-2-amine] | 0.1 to 1 µM | 0.0005 to 0.001 µM | 1 to 10 µM | 1 to 10 µM | –
CCOC(=O)c1cnc(NC2CCOCC2)nc1N[C@H]1CC[C@@H](Oc2nc(N3CCOCC3)cc3ncccc23)CC1 [Compound 93, Ethyl 4-(((1s,4s)-4-((7-morpholino-1,6-naphthyridin-5-yl)oxy)cyclohexyl)amino)-2-((tetrahydro-2H-pyran-4-yl)amino)pyrimidine-5-carboxylate] | 1 to 10 µM | 0.01 to 0.15 µM | 10 to 100 µM | 10 to 100 µM | –
CCOC(=O)c1cnc(N[C@H]2CC[C@@H](Oc3nc(N4CCOCC4)cc4ncccc34)CC2)nc1NC1CCOCC1 [Compound 94, Ethyl 2-(((1s,4s)-4-((7-morpholino-1,6-naphthyridin-5-yl)oxy)cyclohexyl)amino)-4-((tetrahydro-2H-pyran-4-yl)amino)pyrimidine-5-carboxylate] | 0.1 to 1 µM | 0.01 to 0.15 µM | 1 to 10 µM | 1 to 10 µM | –
CN(C)CCOc1cnc(C(=O)N[C@H]2CC[C@@H](Oc3nc(N4CCOCC4)cc4ncccc34)CC2)nc1 [Compound 126, 5-(2-(dimethylamino)ethoxy)-N-((1s,4s)-4-((7-morpholino-1,6-naphthyridin-5-yl)oxy)cyclohexyl)pyrimidine-2-carboxamide] | 1 to 10 µM | 0.001 to 0.01 µM | 10 to 100 µM | 10 to 100 µM | –
O=C(Nc1ccc(F)cc1)N[C@H]1CC[C@@H](Oc2nc(N3CCOCC3)cc3ncccc23)CC1 [Compound 151, 1-(4-Fluorophenyl)-3-((1s,4s)-4-((7-morpholino-1,6-naphthyridin-5-yl)oxy)cyclohexyl)urea] | 0.1 to 1 µM | 0.001 to 0.01 µM | 1 to 10 µM | 1 to 10 µM | 1 to 10 µM
CN(C)C(=O)N[C@H]1CC[C@@H](Oc2nc(N3CCOCC3)cc3ncccc23)CC1 [Compound 153, 1,1-Dimethyl-3-((1s,4s)-4-((7-morpholino-1,6-naphthyridin-5-yl)oxy)cyclohexyl)urea] | 0.1 to 1 µM | 0.001 to 0.01 µM | 10 to 100 µM | 10 to 100 µM | 10 to 100 µM
O=C(Nc1ccccn1)[C@H]1CC[C@@H](Oc2nc(N3CCOCC3)cc3ncccc23)CC1 [Compound 154c, (1S,4S)-4-((7-morpholino-1,6-naphthyridin-5-yl)oxy)-N-(pyridin-2-yl)cyclohexane-1-carboxamide] | 0.1 to 1 µM | 0.001 to 0.01 µM | 1 to 10 µM | 1 to 10 µM | 1 to 10 µM
COC(=O)c1cnc2cc(N3CCOCC3)nc(O[C@H]3CC[C@@H](n4ccnc4)CC3)c2c1 [Compound 164, methyl 5-(((1s,4s)-4-(1H-imidazol-1-yl)cyclohexyl)oxy)-7-morpholino-1,6-naphthyridine-3-carboxylate] | 1 to 10 µM | 0.001 to 0.01 µM | 1 to 10 µM | 1 to 10 µM | 1 to 10 µM
CCCS(=O)(=O)NC(=O)c1cnc2cc(N3CCOCC3)nc(O[C@H]3CC[C@@H](n4ccnc4)CC3)c2c1 [Compound 173, 5-(((1s,4s)-4-(1H-imidazol-1-yl)cyclohexyl)oxy)-7-morpholino-N-(propylsulfonyl)-1,6-naphthyridine-3-carboxamide] | 10 to 30 µM | 0.001 to 0.01 µM | 10 to 100 µM | 10 to 100 µM | 10 to 100 µM
O=C(NS(=O)(=O)C1CC1)c1cnc2cc(N3CCOCC3)nc(O[C@H]3CC[C@@H](n4ccnc4)CC3)c2c1 [Compound 174, 5-(((1s,4s)-4-(1H-imidazol-1-yl)cyclohexyl)oxy)-N-(cyclopropylsulfonyl)-7-morpholino-1,6-naphthyridine-3-carboxamide] | 10 to 30 µM | 0.001 to 0.01 µM | 10 to 100 µM | 10 to 100 µM | 10 to 100 µM
CCOC(=O)c1cnc2cc(N3CCOCC3)nc(O[C@H]3CC[C@@H](Nc4ncc(OCC(=O)N(C)C)cn4)CC3)c2c1 [Compound 179, ethyl 5-(((1s,4s)-4-((5-(2-(dimethylamino)-2-oxoethoxy)pyrimidin-2-yl)amino)cyclohexyl)oxy)-7-morpholino-1,6-naphthyridine-3-carboxylate] | 1 to 10 µM | 0.001 to 0.01 µM | 10 to 100 µM | 10 to 100 µM | 1 to 10 µM
CN(C)C(=O)COc1cnc(N[C@H]2CC[C@@H](Oc3nc(N4CCOCC4)cc4ncc(C(=O)O)cc34)CC2)nc1 [Compound 180, 5-(((1s,4s)-4-((5-(2-(dimethylamino)-2-oxoethoxy)pyrimidin-2-yl)amino)cyclohexyl)oxy)-7-morpholino-1,6-naphthyridine-3-carboxylic acid] | 10 to 30 µM | < 0.0005 µM | 10 to 100 µM | 10 to 100 µM | –
O=C(O)COc1cnc(N[C@H]2CC[C@@H](Oc3nc(N4CCOCC4)cc4ncc(C(=O)O)cc34)CC2)nc1 [Compound 181, 5-(((1s,4s)-4-((5-(carboxymethoxy)pyrimidin-2-yl)amino)cyclohexyl)oxy)-7-morpholino-1,6-naphthyridine-3-carboxylic acid] | 10 to 30 µM | < 0.0005 µM | 10 to 100 µM | 10 to 100 µM | –
